This data set can be described thus: rat acute oral toxicity. To be noted: in vivo.

Where “and” joins values, the source holds several entries; their conditions need not be identical. Equal entries are not always repeated.

What is called LD50 is the dose expected to kill half of the subjects tested. `OCCCCO` came in with an LD50 of 1350 mg/kg.

For the compound `CN(C)C`, the LD50 came out at 460 mg/kg.

Take `Nc1ccc(Nc2ccccc2)cc1`: the LD50 is 464 mg/kg.

Compound `NS(=O)(=O)Cc1noc2ccccc12` displayed an LD50 of 1990 mg/kg.

For `O=C(O)c1ccccc1`, the LD50 was found to be 1700 mg/kg.

The compound `CCO[Si](CCCN)(OCC)OCC` had an LD50 of 1570 mg/kg.

In turn, `O=C(O)C1(C(=O)Nc2ccc(Cl)cc2Cl)CC1` came in with an LD50 of 208 mg/kg.

As for `C=CC#N`, the median lethal dose (LD50) stood at 78 mg/kg.

In turn, `CCOc1ccc(CCCCCCC(C)C)cc1` displayed an LD50 of 5600 mg/kg.

Take `CNC(=O)ON=C(C)SC`: the LD50 was 14.7 mg/kg.

As for `OCC#CCO`, the LD50 came to 104 mg/kg.

Consider `CCc1cccc(CC)c1N`, for which the LD50 is 1800 mg/kg.

In turn, `O=C(O)c1cccnc1` had an LD50 of 4500 mg/kg.

Consider `Oc1ccc(Cl)cc1Cl`, for which the LD50 is 47 mg/kg.

`O=[N+]([O-])c1ccc(Cl)cc1Cl` had an LD50 of 379 mg/kg.

`O=c1nc(O)n(Cl)c(=O)n1Cl` had a 50% lethal dose (LD50) of 1670 mg/kg.

Consider `CSCCC=O`, for which the LD50 worked out at 490 mg/kg.

`CN=C=O` came in with a median lethal dose (LD50) of 51.5 mg/kg.

`CC(=O)OO` yielded an LD50 of 39.9 mg/kg.

Compound `CCCCOC(=O)c1ccccc1` displayed an LD50 of 735 mg/kg.

Turning to `CO[Si](C)(OC)C1CCCCC1`, the LD50 amounted to 2760 mg/kg.

In turn, `CCCSC(=O)N(CCC)CCC` showed an LD50 of 1200 mg/kg.

Compound `C=CCCC` displayed a median lethal dose (LD50) of 4600 mg/kg.

In turn, `S=C=S` gave a 50% lethal dose (LD50) of 1200 mg/kg.

For the compound `OCCN1CN(CCO)CN(CCO)C1`, the LD50 worked out at 763 mg/kg.

For the compound `CCCCOCCOCCOCc1cc2c(cc1CCC)OCO2`, the LD50 is 4570 mg/kg.

With `Cc1ccc(NC(=O)N(C)C)cc1Cl`, the LD50 worked out at 5800 mg/kg.

`CCC(C)(CCC(C)C)C(=O)OOC(C)(C)C` (stereo not drawn) returned a median lethal dose (LD50) of 8080 mg/kg.

`O=C1C(Cl)=C(Cl)C(=O)C(Cl)=C1Cl` showed an LD50 of 4000 mg/kg.

With `Nc1ccccc1C(F)(F)F`, the LD50 was determined as 1870 mg/kg.

The compound `Cc1ccc(C)cc1` registered an LD50 of 3520 mg/kg.

Compound `CCOC(=O)C(SP(=S)(OC)OC)c1ccccc1` (stereo not drawn) gave an LD50 of 71 mg/kg.

In turn, `C=CCO` registered an LD50 of 64 mg/kg.

Consider `CC/C(C)=N/O[Si](C)(O/N=C(\C)CC)O/N=C(\C)CC`, for which the LD50 worked out at 2450 mg/kg.

`CCCC=C(C=O)CC` gave an LD50 of 3000 mg/kg.

Take `CCOP(=S)(OCC)SCSP(=S)(OCC)OCC`: the LD50 is 13 mg/kg.

`CC(C)OC(=O)Nc1ccccc1` displayed an LD50 of 1000 mg/kg.

The compound `CCCN(CCC)CCC` had an LD50 of 72.5 mg/kg.

In turn, `CNC(=O)ON=C1C(Cl)C2CC(C#N)C1C2` (stereo not drawn) showed an LD50 of 19 mg/kg.

`CCN(C)C` registered an LD50 of 594 mg/kg.

In turn, `C=C(C)C(N)=O` gave an LD50 of 1650 mg/kg.

Turning to `CCCCCC(=O)O`, the LD50 was determined as 3000 mg/kg.

The compound `O=[N+]([O-])c1ccc(Cl)c(Cl)c1` came in with an LD50 of 625 mg/kg.

In turn, `CCCCOC(=O)COc1ccc(Cl)cc1Cl` had a median lethal dose (LD50) of 600 mg/kg.

Take `CC(C)Nc1nc(Cl)nc(NC2CC2)n1`: the LD50 came out at 516 mg/kg.

Take `CSc1nc(NC(C)C)nc(NC(C)C)n1`: the LD50 was found to be 1940 mg/kg.

`COP(=S)(Oc1cc(Cl)c(Br)cc1Cl)c1ccccc1` (stereo not drawn): the LD50 came to 19 mg/kg.

Consider `CCCCCCCCOC(=O)c1ccccc1C(=O)OCCCCCCCC`, for which the LD50 came out at 47000 mg/kg.

In turn, `CC(=O)OCCc1ccccc1` returned a 50% lethal dose (LD50) of 3670 mg/kg.

In turn, `CCO` showed an LD50 of 7230 mg/kg.

`c1ccncc1` displayed a median lethal dose (LD50) of 891 mg/kg.

In turn, `ClC1=C(Cl)[C@]2(Cl)[C@H]3[C@H]([C@@H]4C=C[C@H]3C4)[C@@]1(Cl)C2(Cl)Cl` (racemic) returned an LD50 of 39 mg/kg.

With `CCOC(=O)C(C)Oc1ccc(Oc2nc3ccc(Cl)cc3o2)cc1` (stereo not drawn), the LD50 turned out to be 2360 mg/kg.

Consider `CN(C)c1ccc(N)cc1`, for which the LD50 stood at 50 mg/kg.

Consider `C[C@@H]1Cc2c(Cl)cc(C(=O)N[C@@H](Cc3ccccc3)C(=O)O)c(O)c2C(=O)O1`, for which the LD50 turned out to be 20 mg/kg.

Compound `CC1CCCCN1CCCOC(=O)c1ccc(Cl)c(Cl)c1` (stereo not drawn) registered an LD50 of 800 mg/kg.

`CC1(C)CC(N)CC(C)(C)N1` had an LD50 of 906 mg/kg.

`C=COCCCC` had an LD50 of 10000 mg/kg.

`COc1ccc(OC)c([N+](=O)[O-])c1` showed an LD50 of 2120 mg/kg.

Turning to `CC(=O)O[Si](C)(OC(C)=O)OC(C)=O`, the LD50 came to 1550 mg/kg.

`CCC(C)C(C)C(C)CCc1ccc(O)cc1` (stereo not drawn): the LD50 was 2100 mg/kg.

The compound `CCC(C)(C)OC` displayed an LD50 of 1600 mg/kg.

As to `CC1(C)CC(NCCCCCCNC2CC(C)(C)NC(C)(C)C2)CC(C)(C)N1`, the LD50 amounted to 820 mg/kg.

In turn, `CCCCCCCCCCCCNC(=N)N` gave an LD50 of 566 mg/kg.

`O=S1(=O)CCCC1`: the LD50 was found to be 1970 mg/kg.

Turning to `N#C/N=C1\SCCN1Cc1ccc(Cl)nc1`, the LD50 came to 285 mg/kg.

`C1CO1` came in with a median lethal dose (LD50) of 72 mg/kg.

In turn, `CC1(C)[C@H](C(=O)O[C@@H](C#N)c2cccc(Oc3ccccc3)c2)[C@@H]1C=C(Cl)Cl` (single isomer, unassigned) returned an LD50 of 57 mg/kg.

`CC1OC(C)OC(C)O1` (stereo not drawn) displayed an LD50 of 1530 mg/kg.

In the case of `C=C(C)C(=O)OCCN(C)C`, the LD50 worked out at 455 mg/kg.

On to `COC(=O)CS`, for which the LD50 worked out at 84 mg/kg.

As to `O=C(O)CC(O)C(=O)O` (stereo not drawn), the LD50 is 9300 mg/kg and 3200 mg/kg.

`CCCCCCCCCc1ccc(OCCOCCO)cc1` gave an LD50 of 1310 mg/kg.

Source of the values: the CATMoS acute toxicity set (Mansouri et al. 2021).
